According to patent publication US9340577B2, “HLA binding motifs and peptides and their uses” (priority 1992, dated 2016):
Where two headings read alike, the source gives them in different places. No end group written: not given here.

How the values were obtained:
Experiment in all cases: biochemical
[1] = molecular target: DR1 (DRB1*0101) (Homo sapiens, UniProt P01903+P01911, A100R/D57E/F55L/F60I/F76Y/I96L/L162R/M171V/P40L/Q125E/R42F/V115G/Y59C); format: binding
[2] = molecular target: DRB5*0101 (Homo sapiens, UniProt P01903+Q30154)
[3] = molecular target: DRB1*0405 (Homo sapiens, UniProt P01903+P01911, A100R/A169T/D86S/F76Y/I96L/K127E/L162R/M171V/N62H/P40V/Q125Y/R42H/S133A/S149N/S66Y/V115G/V209L/W38E); format: binding
[4] = molecular target: DRB1*1501 (Homo sapiens, UniProt P01903+P01911); format: binding
[5] = molecular target: DRB1*1302 (Homo sapiens, UniProt P01903+P01911, A100E/A169T/K41T/L162R/M171V/P40S/Q125H/Q178H/Q39Y/Q99D/R42S/S66N/T262R/V115G/W38E/Y61H); format: binding
[6] = molecular target: DRB4*0101 (Homo sapiens, UniProt P01903+P13762, G164S); format: binding
[7] = molecular target: DRB1*0901 (Homo sapiens, UniProt P01903+P01911, A100R/A103E/D57H/D86V/F55Y/F60I/F76Y/I96F/K127E/L162R/M171V/P40D/Q125H/Q99R/R33Q/R42F/S133A/S66N/T210M/V115G/W38K/Y107V/Y59G/Y89S); format: binding
[8] = molecular target: DR7 (DRB1*0701) (Homo sapiens, UniProt P01903+P01911, A100R/A102G/A103Q/D57E/D86V/E43K/F76Y/K127E/L162R/M171V/P40G/Q125H/Q99D/R33Q/R42Y/R54Q/S133A/S66F/T210M/V115G/Y107V/Y59L/Y89S); format: binding
[9] = molecular target: DRB1*1201 (Homo sapiens, UniProt P01903+P01911, A100R/A169T/D57E/D86V/F55L/H45Y/K41T/L162R/M171V/P40S/Q125H/Q178H/Q39Y/Q99D/R42G/S66L/T262R/V114A/V67L/W38E/Y59H/Y61H/Y89S); format: binding
[10] = molecular target: DRB1*0301 (Homo sapiens, UniProt P01903+P01911, A100K/A102G/A103R/A169T/F55Y/I96L/K41T/L162R/M171V/P40S/Q125H/Q178H/Q39Y/R42S/S66N/T106N/T262R/W38E/Y61H); format: binding
[11] = molecular target: DRB1*0802 (Homo sapiens, UniProt P01903+P01911, A100R/A103L/A169T/F76Y/H45Y/I96F/K41T/L162R/M171V/P40S/Q125H/Q178H/Q39Y/Q99D/R218S/R42G/S66Y/V115G/W38E); format: binding
[12] = molecular target: DRB1*1101 (Homo sapiens, UniProt P01903+P01911, A100R/A169T/A87E/I96F/K41T/L162R/M171V/P40S/Q125H/Q178H/Q39Y/Q99D/R42S/S66Y/T262R/V115G/W38E)
[13] = molecular target: DR4w4 (DRB1*0401) (Homo sapiens, UniProt P01903+P01911, A100K/A169T/F76Y/I96L/K127E/L162R/M171V/N62H/P40V/Q125Y/R42H/S133A/S149N/S66Y/V115G/V209L/W38E); format: binding

Chain of DRB1*1302 (P01903 26-254 limits assumed, other chains not shown): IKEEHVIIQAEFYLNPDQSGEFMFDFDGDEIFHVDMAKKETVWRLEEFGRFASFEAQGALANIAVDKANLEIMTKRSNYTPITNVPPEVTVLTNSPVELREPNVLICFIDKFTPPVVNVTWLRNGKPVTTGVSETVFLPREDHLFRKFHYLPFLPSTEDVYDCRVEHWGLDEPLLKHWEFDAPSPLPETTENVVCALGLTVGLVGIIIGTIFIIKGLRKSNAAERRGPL
Chain of DRB1*1101 (P01903 26-254 limits assumed, other chains not shown): as above
Chain of DRB1*0301 (P01903 26-254 limits assumed, other chains not shown): as above

Row | Molecule | IC50 [1] [nM] | IC50 ([2]; Binding affinity DRB5 *0101) [nM] | IC50 [3] [nM] | IC50 [4] [nM] | IC50 [5] [nM] | IC50 [6] [nM] | IC50 [7] [nM] | IC50 [8] [nM] | IC50 [9] [nM] | IC50 [10] [nM] | IC50 [11] [nM] | IC50 ([12]; Binding affinity DRB1 *1101) [nM] | IC50 [13] [nM] | IC50 [2] [nM] | IC50 [12] [nM]
1 | TGWFEVEAVIERRTG [Peptide 90.0075] | 17100 | 362 | 6110 | > 20000 | > 20000 | > 20000 | > 20000 | 4930 | > 20000 | 17 | – | – | – | – | –
2 | VDFIVNDNDYLTQAE [Peptide 90.0031] | 2830 | > 20000 | > 20000 | > 20000 | 204 | 718 | > 20000 | 7280 | 17100 | 42 | > 20000 | > 20000 | – | – | –
3 | AFQVIELQMALETLN [Peptide 90.0024] | 29 | > 20000 | 2100 | 378 | 89 | 11 | – | – | 466 | 1280 | 4950 | 3340 | – | – | –
4 | KTLIKPATLYAHIQC [Peptide 89.0083] | 60 | 5230 | 841 | 654 | – | 51 | – | 308 | 422 | 1220 | 231 | 35 | – | – | –
5 | QMFLGTVKIPPTVQI [Peptide 89.0188] | – | 4490 | 616 | 208 | – | 13 | > 20000 | 4650 | 553 | 160 | 503 | 474 | – | – | –
6 | PHAFPFDKNGNPVYE [Peptide 90.0106] | 517 | > 20000 | 7190 | 2790 | 1390 | – | – | 7120 | 671 | 930 | > 20000 | > 20000 | – | – | –
7 | AQEVHNDAQVLHVLK [Peptide 90.0047] | 407 | > 20000 | > 20000 | 2540 | – | – | 10200 | 7800 | > 20000 | 21 | – | 10700 | 4530 | – | –
8 | ETCMLIEPPKLRSSV [Peptide 89.0084] | 35 | – | 906 | – | 481 | 48 | 5120 | 756 | 708 | 359 | 1350 | 123 | – | – | –
9 | WQLIRLENAILFTAR [Peptide 90.0211] | 4.1 | 445 | 308 | 44 | 2.7 | 20 | 2270 | 89 | 99 | 41 | 1840 | – | – | – | –
10 | KIGMLDDATVPCWNY [Peptide 90.0040] | 4430 | > 20000 | > 20000 | > 20000 | > 20000 | – | > 20000 | > 20000 | 12700 | 160 | > 20000 | > 20000 | 490 | – | –
11 | LKVLIQPYSIYAHLQ [Peptide 89.0098] | – | 993 | 2240 | 79 | 677 | – | 12800 | 26 | 237 | 191 | 4770 | 681 | 524 | – | –
12 | PEWIQRLTIIQHGID [Peptide 89.0031] | 879 | 240 | 131 | 3420 | 558 | 3.3 | 4510 | – | 527 | 4380 | 187 | 596 | – | – | –
13 | LLEFIDDSMENSIQA [Peptide 90.0077] | 500 | > 20000 | 534 | 6120 | > 20000 | 734 | 6680 | > 20000 | > 20000 | 518 | > 20000 | 7620 | – | – | –
14 | CC(C)C[C@H](NC(=O)[C@@H](NC(=O)[C@H](Cc1c[nH]c2ccccc12)NC(=O)[C@H](CC(=O)O)NC(=O)[C@H](CCC(=O)O)NC(=O)[C@@H](NC(=O)[C@H](CCCCN)NC(=O)[C@H](Cc1ccc(O)cc1)NC(=O)[C@H](CCCNC(=N)N)NC(=O)[C@H](CO)NC(=O)[C@@H](N)CCC(N)=O)[C@@H](C)O)[C@@H](C)O)C(=O)N[C@@H](CCC(N)=O)C(=O)N[C@@H](CC(=O)O)C(=O)N[C@H](C(=O)N[C@@H](CS)C(=O)O)[C@@H](C)O [Peptide 90.0179] | – | – | 1590 | 345 | 71 | – | 1970 | 6500 | 193 | 335 | 585 | – | 71 | > 20000 | 2090
15 | GERLEVDTELSPRLQ [Peptide 90.0048] | > 20000 | > 20000 | > 20000 | > 20000 | > 20000 | > 20000 | > 20000 | > 20000 | > 20000 | 15 | > 20000 | > 20000 | – | – | –
16 | VTVFTFPHAFPFDKN [Peptide 89.0092] | – | 226 | 10200 | 63 | > 20000 | 1500 | 33 | 5.5 | 131 | > 20000 | – | – | – | – | –
17 | MNYVVWDSIYYITET [Peptide 90.0214] | 2610 | 18300 | 452 | 3090 | 17 | – | 888 | 55 | 1140 | 151 | > 20000 | 1620 | – | – | –
18 | RETIEKLLSKLLCVS [Peptide 89.0006] | 199 | 7070 | 6170 | 232 | 600 | – | 6480 | 187 | 523 | 13000 | 652 | 715 | > 20000 | – | –
19 | DRGVLILLLIRFKCG [Peptide 89.0099] | 20 | 83 | 3340 | – | – | – | – | 384 | 711 | 470 | 4730 | 1630 | 1480 | – | –
20 | QQTVCREGVKRRLIL [Peptide 90.0129] | 5890 | – | – | > 20000 | > 20000 | 11 | 3920 | > 20000 | 12700 | 711 | 3740 | 1020 | 82 | > 20000 | –
21 | ISEVYGDTPEWIQRQ [Peptide 90.0035] | > 20000 | > 20000 | 12800 | > 20000 | 6.9 | – | > 20000 | 6870 | > 20000 | 50 | > 20000 | > 20000 | > 20000 | – | –
